Laboratory results from patent US8357365B2, “Granulysin peptides and methods of use thereof” (The Regents of the University of California, priority 2005, dated 2013).
“Also recorded” adds a separate entry of the source.

Key:
Escherichia coli = conditions: earlier study, Ernst et al., 2000; cited from earlier work
[1] = test system: Propionibacterium acnes strain ATCC 6919; assay: CFU assay of antimicrobial activity against P. acnes; format: cell-based; conditions: for reduction of the number of viable P. acnes: 100 μM of peptide (FIG. 1B)
Procedure: CFU assay. The CFU assay was performed as described previously (Ernst et al., (2000) Immunol 165:7102-7108). Propionibacterium acnes strain ATCC 6919 (American Type Cell Culture, Manassas, Va.) was grown under anaerobic conditions in Reinforced Clostridial Medium (Oxoid, Basingstroke, England) for two days and collected in mid-log phase. The bacteria were washed three times with the assay buffer, 10 mM sodium phosphate, pH 7.2, supplemented with 0.03% trypticase soy broth (TSB, Becton-Dickinson, Cockeysville, Md.), and enumerated by applying a conversion factor of 7.5×10^7 bacteria/mL=1 OD unit at 600 nm. Various concentrations of granulysin or granulysin peptides were incubated with 3.75×10^5 bacteria in a final volume of 30 μL at 37° C. for four hours. […] Plates were incubated for four days at 37° C. under anaerobic conditions, then individual colonies were counted and the number of CFU per tube was calculated.

[2] = test system: Mycobacterium tuberculosis; conditions: earlier study, Ernst et al., 2000; cited from earlier work
[3] = test system: inflammatory cytokines and chemokines; assay: P. acnes-stimulated production of cytokines and chemokines by monocytes; format: cell-based; conditions: primary human monocytes (FIG. 5)
Procedure: (§1) Primary Human Monocyte Isolation and Stimulation. Peripheral human blood was drawn from normal healthy volunteers into heparinized tubes according to a protocol approved by the Institutional Review Board at UCLA. PBMCs were then isolated on Ficoll-Paque gradients (Pharmacia, Piscataway, N.J.) and plated (5×10^5/well) in 96-well plates for 2 hours in 1% FCS (Omega Scientific, Tarzana, Calif.). Non-adherent cells were removed by washing 3 times with RPMI media, leaving adherent cells. Adherent monocytes were cultured in 10% FCS with P. acnes sonicate, granulysin peptides, or P. acnes sonicate together with various concentrations of granulysin peptide for 24 hours at 37° C. Monocyte supernatants were harvested and assayed for IL-12p40 using cytokine-specific, commercially available antibody pairs in a standard sandwich ELISA (Biosource International, Camarillo, Calif., or BD PharMingen, San Diego, Calif.). Capture antibodies were coated to 96-well EIA/RIA plates (Costar, Corning) and detection was achieved by incubating with biotinylated antibodies followed by Immunopure HRP-conjugated streptavidin (Pierce, Rockford, Ill.) and the ABTS Microwell Peroxidase Substrate System (Kirkegaard & Perry Laboratories, Gaithersburg, Md.). The absorbance at 405 nm was read using a microtiter plate reader, and cytokine concentrations were calculated from a standard curve of recombinant cytokine (Biosource or Pharmingen). Supernatants were assayed for other cytokines using Pierce SearchLight Multiplex Cytokine array services (Pierce Biotechnology, Woburn, Mass.).

P. acnes = assay: Scanning and transmission electron microscopy of peptide-treated P. acnes; format: cell-based, Propionibacterium acnes; conditions: 1 hour to 72 hours of peptide treatment (FIG. 2B, 2C)
Procedure: Electron microscopy. P. acnes at a concentration of 2.08×10^7 bacteria/mL was suspended in 10 mM sodium phosphate buffer pH 7.2 supplemented with 0.03% TSB and incubated with […] granulysin peptides. Samples were then fixed for 30 minutes with 2% gluteraldehyde in 1×PBS, pH=7.35, room temperature, then washed three times and suspended in 1 mL 1×PBS. Scanning EM samples were filtered onto a micropore filter. The filters with the sample on top were dehydrated in graded ethanol; 50, 75, 95 and 100%-15 minutes in each, followed by similar transfers in hexa-methyl-disilazane reagent; 50, 75, 95%-30 minutes each followed by 100% hexa-methyl-disilazane reagent overnight. The scanning EM samples were gold coated and then viewed and photographed on a Cambridge Scanning electron microscope. Transmission EM samples were dehydrated in graded ethanol as above, embedded in Epon, and sectioned on Sorvall MT6000 (RMC, Tucson Ariz.). Thin sections ([…]) were stained with uranyl acetate, viewed and photographed on Jeol XC100 at 80-kV

MCP-1 = assay: Cytokine array, P. acnes-stimulated monocytes, MCP-1; format: cell-based, human
Procedure: as §1, with “Capture antibodies were coated to 96-well EIA/RIA plates (Costar, Corning) and detection was achieved by incubating with biotinylated antibodies followed by Immunopure HRP-conjugated streptavidin (Pierce, Rockford, Ill.) and the ABTS Microwell Peroxidase Substrate System (Kirkegaard & Perry Laboratories, Gaithersburg, Md.).” left out, “Supernatants were assayed for other cytokines using Pierce SearchLight Multiplex Cytokine array services (Pierce Biotechnology, Woburn, Mass.).” left out

MDC = assay: Cytokine array, P. acnes-stimulated monocytes, MDC; format: cell-based, human
Procedure: as §1, with “Capture antibodies were coated to 96-well EIA/RIA plates (Costar, Corning) and detection was achieved by incubating with biotinylated antibodies followed by Immunopure HRP-conjugated streptavidin (Pierce, Rockford, Ill.) and the ABTS Microwell Peroxidase Substrate System (Kirkegaard & Perry Laboratories, Gaithersburg, Md.).” left out, “Supernatants were assayed for other cytokines using Pierce SearchLight Multiplex Cytokine array services (Pierce Biotechnology, Woburn, Mass.).” left out

IL-12p40 = IL-12p40 ELISA, P. acnes-stimulated primary human monocytes; format: cell-based; conditions: compared to peptides 1-20 and 16-35 (FIG. 5A)
Procedure: as §1, with “Capture antibodies were coated to 96-well EIA/RIA plates (Costar, Corning) and detection was achieved by incubating with biotinylated antibodies followed by Immunopure HRP-conjugated streptavidin (Pierce, Rockford, Ill.) and the ABTS Microwell Peroxidase Substrate System (Kirkegaard & Perry Laboratories, Gaithersburg, Md.).” left out, “Supernatants were assayed for other cytokines using Pierce SearchLight Multiplex Cytokine array services (Pierce Biotechnology, Woburn, Mass.).” left out

IP-10 = assay: Cytokine array, P. acnes-stimulated monocytes, IP-10; format: cell-based, human
Procedure: as §1, with “Capture antibodies were coated to 96-well EIA/RIA plates (Costar, Corning) and detection was achieved by incubating with biotinylated antibodies followed by Immunopure HRP-conjugated streptavidin (Pierce, Rockford, Ill.) and the ABTS Microwell Peroxidase Substrate System (Kirkegaard & Perry Laboratories, Gaithersburg, Md.).” left out, “Supernatants were assayed for other cytokines using Pierce SearchLight Multiplex Cytokine array services (Pierce Biotechnology, Woburn, Mass.).” left out

Row | Sequence | killing of Escherichia coli (Escherichia coli) | reduction of the number of viable P. acnes [1] | killing of Mycobacterium tuberculosis [2] | P. acnes-stimulated production of cytokines and chemokines [3] | further results
1 | GRDYRTSLTIVQKLKKMVDKPTQRSVSNAATRVSR [1-35] | capable of killing | 2 logs | capable of killing | – | –
2 | TGRSRWRDVSRNFMRRYQSRVIQGLVAGETAQQIS [36-70] | capable of killing | – | capable of killing | – | –
3 | TRVSRTGRSRWRDVSRNFMR [31-50] | capable of killing | 4 logs | capable of killing | inhibit | –
4 | TRVSRTGRSRWRDWSRNFMR [31-50v44w] | – | – | – | inhibit | effect on P. acnes surface by scanning and transmission EM (P. acnes): perturbs the surface integrity of P. acnes; production of MCP-1 (MCP-1): inhibited; fewer bacteria as compared to incubation with peptide 31-50 ([1]; 32 μM of peptide (FIG. 2A)): 2-3 logs; production of MDC (MDC): inhibited; P. acnes-stimulated production of IL-12p40 (IL-12p40): decreased; production of IP-10 (IP-10): inhibited
5 | TRVSRTGRSRWRDWSRNFMR [D-31-50v44w] (all D-amino acids) | – | – | – | decreased; also recorded: inhibit | antimicrobial potency in vitro as compared to 31-50v44w (D versus L form) ([1]; P. acnes): even greater potency; kind of antimicrobial activity against P. acnes (bacteriostatic or bactericidal) ([1]; comparison with widely used antibiotics (FIG. 3C)): bactericidal
